Laboratory results reported in ChEMBL document CHEMBL3259572, “Euodenine A: a small-molecule agonist of human TLR4” (J Med Chem, 2014).
The source made the active and inactive calls. No cut-off for these calls is given here.

Key:
Format in all cases: cell-based
Toll-like receptor 4 [1] = target: T1, Toll-like receptor 4 (Homo sapiens, UniProt O00206); test: Agonist activity at human recombinant TLR4 expressed in HEK293 cells by SEAP reporter assay
Toll-like receptor 4 [2] = target: T1, Toll-like receptor 4; test: Intrinsic activity at human recombinant TLR4 expressed in HEK293 cells by SEAP reporter assay relative to LPS
Toll-like receptor 4 [3] = target: T1, Toll-like receptor 4; test: Agonist activity at human recombinant TLR4 expressed in HEK293 cells at 71.5 uM by SEAP reporter assay
Toll-like receptor 4 [4] = target: T1, Toll-like receptor 4; test: Agonist activity at human recombinant TLR4 expressed in HEK293 cells at 25 uM by SEAP reporter assay
Toll-like receptor 4 [5] = target: T1, Toll-like receptor 4; test: Agonist activity at human recombinant TLR4 expressed in HEK293 cells at 333 uM by SEAP reporter assay
Toll-like receptor 4 [6] = target: T1, Toll-like receptor 4; test: Agonist activity at human recombinant TLR4 expressed in HEK293 cells at 60 uM by SEAP reporter assay
Toll-like receptor 4 [7] = target: T1, Toll-like receptor 4; test: Agonist activity at human recombinant TLR4 expressed in HEK293 cells at 30 uM by SEAP reporter assay
Toll-like receptor 4 [8] = target: T1, Toll-like receptor 4; test: Agonist activity at human recombinant TLR4 expressed in HEK293 cells at 300 uM by SEAP reporter assay

T1 sequence (O00206 whole entry): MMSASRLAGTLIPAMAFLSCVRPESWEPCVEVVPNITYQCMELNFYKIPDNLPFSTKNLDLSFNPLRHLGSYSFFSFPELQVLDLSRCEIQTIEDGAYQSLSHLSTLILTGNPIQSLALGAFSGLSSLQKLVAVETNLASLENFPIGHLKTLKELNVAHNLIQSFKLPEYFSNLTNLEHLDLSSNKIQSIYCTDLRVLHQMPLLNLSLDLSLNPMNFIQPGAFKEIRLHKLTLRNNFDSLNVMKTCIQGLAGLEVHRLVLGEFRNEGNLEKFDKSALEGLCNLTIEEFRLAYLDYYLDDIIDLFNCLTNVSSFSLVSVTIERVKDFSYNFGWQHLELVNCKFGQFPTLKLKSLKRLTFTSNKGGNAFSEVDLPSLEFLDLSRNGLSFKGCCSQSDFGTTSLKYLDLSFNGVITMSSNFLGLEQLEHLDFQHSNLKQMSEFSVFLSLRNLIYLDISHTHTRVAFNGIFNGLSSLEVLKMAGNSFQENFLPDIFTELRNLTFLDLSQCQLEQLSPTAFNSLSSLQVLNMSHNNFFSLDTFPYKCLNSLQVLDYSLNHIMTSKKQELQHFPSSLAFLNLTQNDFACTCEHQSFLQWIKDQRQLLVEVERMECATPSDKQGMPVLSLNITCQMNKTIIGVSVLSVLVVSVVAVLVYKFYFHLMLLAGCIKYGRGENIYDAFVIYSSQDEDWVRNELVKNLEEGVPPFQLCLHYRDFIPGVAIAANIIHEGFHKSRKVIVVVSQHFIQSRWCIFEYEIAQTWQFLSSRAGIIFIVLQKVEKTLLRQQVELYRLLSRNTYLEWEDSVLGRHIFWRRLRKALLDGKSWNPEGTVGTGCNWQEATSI

| SMILES | EC50 (Toll-like receptor 4 [1]) | Intrinsic activity (Toll-like receptor 4 [2]) | other results |
| --- | --- | --- | --- |
| COc1ccc([C@H]2[C@H]3c4c(c5ccccc5n(C)c4=O)OC(C)(C)[C@H]3[C@@H]2C(C)C)cc1Cl | 3.1 µM | 0.53 |  |
| CCCC[C@@H]1[C@@H](c2ccc(OC)c(OC)c2)[C@H]2c3c(c4ccccc4[nH]c3=O)OC(C)(C)[C@@H]12 | 1.2 µM | 1.01 |  |
| CC[C@@H]1[C@@H](c2ccc(OC)c(OC)c2)[C@H]2c3c(c4ccccc4n(C)c3=O)OC(C)(C)[C@@H]12 | 2 µM | 0.61 |  |
| CCCC[C@@H]1[C@@H](c2cc(OC)c(OC)c(OC)c2)[C@H]2c3c(c4ccccc4[nH]c3=O)OC(C)(C)[C@@H]12 | 2 µM | 0.69 |  |
| CC[C@@H]1[C@@H](c2ccc(OC)c(F)c2)[C@H]2c3c(c4ccccc4n(C)c3=O)OC(C)(C)[C@@H]12 | 3.1 µM | 0.36 |  |
| COc1cc([C@@H]2[C@@H](C)[C@@H]3C(C)Oc4c(c(=O)[nH]c5ccccc45)[C@H]23)cc(OC)c1OC (single isomer, unassigned) | > 10 µM |  |  |
| COc1ccc([C@H]2[C@H]3c4c(c5ccccc5[nH]c4=O)OC(C)(C)[C@H]3[C@@H]2C2CCCC2)cc1OC | 0.39 µM | 0.9 |  |
| COc1ccc([C@H]2[C@H]3c4c(c5ccccc5n(C)c4=O)OC(C)(C)[C@H]3[C@@H]2C(C)C)cc1OC(C)=O | 3.1 µM | 0.31 |  |
| COc1ccc([C@H]2[C@H]3c4c(c5ccccc5[nH]c4=O)OC(C)(C)[C@H]3[C@@H]2C2CC2)cc1OCCCO | 0.79 µM | 0.88 |  |
| COc1cc([C@H]2[C@H]3c4c(c5ccccc5[nH]c4=O)OC(C)(C)[C@H]3[C@@H]2C2CC2)cc(OC)c1OC | 0.63 µM | 0.82 |  |
| COc1cc(OC)cc([C@@H]2[C@@H](C)[C@H]3[C@@H]2c2c(c4ccccc4[nH]c2=O)OC3(C)C)c1 | 3.1 µM | 0.46 |  |
| C[C@@H]1[C@@H](c2ccccc2)[C@H]2c3c(c4ccccc4[nH]c3=O)OC(C)(C)[C@@H]12 |  |  | Activity (Toll-like receptor 4 [3]): inactive |
| CC[C@@H]1[C@@H](c2ccc(OC)c(OC)c2)[C@H]2c3c(c4cc(C)ccc4n(C)c3=O)OC(C)(C)[C@@H]12 | 3.1 µM | 0.29 |  |
| COc1cc([C@@H]2[C@@H](C)[C@H]3[C@@H]2c2c(c4ccccc4[nH]c2=O)OC3(C)C)ccc1O | > 10 µM |  |  |
| COc1cc([C@H]2[C@H]3c4c(c5ccccc5[nH]c4=O)OC(C)(C)[C@H]3[C@@H]2C2CCCC2)cc(OC)c1OC | 0.63 µM | 0.63 |  |
| COc1ccc([C@H]2[C@H]3c4c(c5ccccc5[nH]c4=O)OC(C)(C)[C@H]3[C@@H]2C(C)C)cc1OC(C)=O | > 10 µM |  |  |
| COC(=O)[C@@H]1C(c2cc(OC)c(OC)c(OC)c2)[C@H]2c3c(c4ccccc4[nH]c3=O)OC(C)(C)C12 (single isomer, unassigned) |  |  | Activity (Toll-like receptor 4 [4]): inactive |
| COc1ccc2[nH]c(=O)c3c(c2c1)OC(C)(C)[C@@H]1[C@H]3[C@H](c2ccc(OC)c(OC)c2)[C@H]1C(C)C | > 10 µM |  |  |
| CCC[C@]1(c2ccc(OC)c(OC)c2)O[C@H]2c3c(c4ccccc4[nH]c3=O)OC(C)(C)[C@H]2O1 | 15.8 µM | 0.2 |  |
| COc1ccc([C@H]2[C@H]3c4c(c5ccccc5[nH]c4=O)OC(C)(C)[C@H]3[C@@H]2C(C)C)cc1OC(=O)CCC(=O)O | 6.3 µM | 0.29 |  |
| COc1cc([C@H]2[C@H]3c4c(c5ccccc5n(C)c4=O)OC(C)(C)[C@H]3[C@@H]2C2CCCC2)cc(OC)c1OC | 2.5 µM | 0.69 |  |
| COc1ccc([C@@H]2[C@@H](C)[C@H]3[C@@H]2c2c(c4ccccc4n(C)c2=O)OC3(C)C)cc1OC | 2.5 µM | 0.64 |  |
| COc1ccc([C@@H]2[C@@H](C)[C@H]3[C@@H]2c2c(c4ccccc4[nH]c2=O)OC3(C)C)c(Cl)c1OC | 3.1 µM | 0.44 |  |
| COc1ccc([C@H]2[C@H]3c4c(c5ccccc5[nH]c4=O)OC(C)(C)[C@H]3[C@@H]2C(C)C)cc1OC | 1 µM | 0.9 |  |
| CCOc1ccc([C@H]2[C@H]3c4c(c5ccccc5[nH]c4=O)OC(C)(C)[C@H]3[C@@H]2C(C)C)cc1OC | 3.9 µM | 0.19 |  |

| SMILES | EC50 (Toll-like receptor 4 [1]) | Intrinsic activity (Toll-like receptor 4 [2]) | other results |
| --- | --- | --- | --- |
| COc1ccc([C@@H]2[C@@H](C(C)=O)[C@H]3[C@@H]2c2c(c4ccccc4[nH]c2=O)OC3(C)C)cc1OC | 10 µM | 0.3 |  |
| COc1cc(C2[C@@H](COC(C)=O)C3[C@@H]2c2c(c4ccccc4[nH]c2=O)OC3(C)C)cc(OC)c1OC (single isomer, unassigned) | 5 µM | 0.1 |  |
| CCOC(=O)[C@@H]1[C@@H](c2ccc(Br)cc2)[C@H]2c3c(c4ccccc4[nH]c3=O)OC(C)(C)[C@@H]12 |  |  | Activity (Toll-like receptor 4 [5]): inactive |
| COc1ccc([C@@H]2[C@@H](C)[C@H]3[C@@H]2c2c(c4ccccc4[nH]c2=O)OC3(C)C)cc1Br | 3.9 µM | 0.28 |  |
| COc1cc([C@H]2[C@H]3c4c(c5ccccc5n(C)c4=O)OC(C)(C)[C@H]3[C@@H]2C2CC2)cc(OC)c1OC | 0.79 µM | 0.81 |  |
| COc1ccc([C@@H]2[C@@H](C(=O)C3CC3)[C@H]3[C@@H]2c2c(c4ccccc4[nH]c2=O)OC3(C)C)cc1OC | 7.9 µM | 0.62 |  |
| COc1cc([C@H]2[C@H]3c4c(c5ccccc5[nH]c4=O)OC(C)(C)[C@H]3[C@@H]2C(C)C)cc(OC)c1OC | 0.79 µM | 1.18 |  |
| CCC[C@]1(c2cc(OC)c(OC)c(OC)c2)O[C@H]2c3c(c4ccccc4[nH]c3=O)OC(C)(C)[C@H]2O1 |  |  | Activity (Toll-like receptor 4 [6]): inactive |
| CC[C@@H]1[C@@H](c2ccc(OC)c(OC)c2)[C@H]2c3c(c4ccccc4[nH]c3=O)OC(C)(C)[C@@H]12 | 1.2 µM | 1.01 |  |
| COc1cc([C@@H]2C[C@H]3[C@@H]2c2c(c4ccccc4[nH]c2=O)OC3(C)C)cc(OC)c1OC |  |  | Activity (Toll-like receptor 4 [7]): inactive |
| CC[C@@H]1[C@@H](c2cc(OC)c(OC)c(OC)c2)[C@H]2c3c(c4ccccc4[nH]c3=O)OC(C)(C)[C@@H]12 | 0.79 µM | 1.05 |  |
| CC[C@@H]1[C@@H](c2cc(OC)c(OC)c(OC)c2)[C@H]2c3c(c4cc(C)ccc4n(C)c3=O)OC(C)(C)[C@@H]12 | 3.1 µM | 0.3 |  |
| COc1cc([C@@H]2[C@@H](C)[C@H]3[C@@H]2c2c(c4ccccc4[nH]c2=O)OC3(C)C)ccc1OCc1ccccc1 |  |  | Activity (Toll-like receptor 4 [8]): inactive |
| COc1ccc2[nH]c(=O)c3c(c2c1)OC(C)(C)[C@H]1[C@H](C)[C@@H](c2cc(OC)c(OC)c(OC)c2)[C@@H]31 | > 10 µM |  |  |
| COc1cc([C@H]2[C@H]3c4c(c5cc(C)ccc5n(C)c4=O)OC(C)(C)[C@H]3[C@@H]2C(C)C)cc(OC)c1OC | 7.9 µM | 0.41 |  |
| COc1ccc([C@H]2[C@H]3c4c(c5ccccc5[nH]c4=O)OC(C)(C)[C@H]3[C@@H]2C2CC2)cc1OCCCN1CCOCC1 | 3.9 µM | 0.19 |  |
| CCC[C@]1(c2cc(OC)cc(OC)c2)O[C@H]2c3c(c4ccccc4[nH]c3=O)OC(C)(C)[C@H]2O1 | 3.1 µM | 0.7 |  |
| COc1cc(C2[C@@H](COC(C)C)C3[C@@H]2c2c(c4ccccc4[nH]c2=O)OC3(C)C)cc(OC)c1OC (single isomer, unassigned) |  |  | Activity (Toll-like receptor 4 [8]): inactive |
| COc1ccc([C@H]2[C@H]3c4c(c5ccccc5[nH]c4=O)OC(C)(C)[C@H]3[C@@H]2C(C)C)cc1Cl | 2 µM | 0.47 |  |
| COc1ccc([C@@H]2[C@@H](C)[C@H]3[C@@H]2c2c(c4ccccc4[nH]c2=O)OC3(C)C)c(OC)c1OC | > 10 µM |  |  |
| COc1ccc([C@H]2[C@H]3c4c(c5ccccc5[nH]c4=O)OC(C)(C)[C@H]3[C@@H]2C2CC2)cc1OC | 0.63 µM | 0.75 |  |
| COc1ccc([C@H]2[C@H]3c4c(c5ccccc5[nH]c4=O)OC(C)(C)[C@H]3[C@@H]2C(C)C)cc1CCl | 2 µM | 0.2 |  |
| COc1ccc([C@@H]2[C@@H](C)[C@H]3[C@@H]2c2c(c4ccccc4[nH]c2=O)OC3(C)C)cc1OC | 3.1 µM | 0.69 |  |
| COc1ccc([C@H]2[C@H]3c4c(c5ccccc5[nH]c4=O)OC(C)(C)[C@H]3[C@@H]2C(C)C)cc1OCCO | 0.5 µM | 0.46 |  |
| COc1ccc([C@@H]2[C@@H](C)[C@H]3[C@@H]2c2c(c4ccccc4[nH]c2=O)OC3(C)C)cc1 | > 10 µM |  |  |
